Experimental data published in PubChem BioAssay (NCI).
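Assay format: 96-well plates, 48-hour exposure. The concentration for 50% growth inhibition is given as GI50. TGI marks complete inhibition of growth.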

Columns and labels:
Assay in all cases: inhibition of tumour cell growth, NCI panel, 48 h
MOLT-4 leukemia = test system: MOLT-4 leukemia
OVCAR-8 ovarian = test system: OVCAR-8 ovarian
TK-10 renal = test system: TK-10 renal
A549 NSCLC = test system: A549 NSCLC
MCF7 breast = test system: MCF7 breast
SF-268 CNS = test system: SF-268 CNS
HCT-116 colon = test system: HCT-116 colon
786-0 renal = test system: 786-0 renal
PC-3 prostate = test system: PC-3 prostate
NCI-H226 lung = test system: NCI-H226 lung
UACC-62 melanoma = test system: UACC-62 melanoma
EKVX NSCLC = test system: EKVX NSCLC
SK-MEL-5 melanoma = test system: SK-MEL-5 melanoma
CAKI-1 renal = test system: CAKI-1 renal
OVCAR-3 ovarian = test system: OVCAR-3 ovarian
HL-60(TB) leukemia = test system: HL-60(TB) leukemia
BT-549 breast = test system: BT-549 breast
T-47D breast = test system: T-47D breast
CCRF-CEM leukemia = test system: CCRF-CEM leukemia
DU-145 prostate = test system: DU-145 prostate
HCC-2998 colon = test system: HCC-2998 colon
HCT-15 colon = test system: HCT-15 colon
COLO 205 colon = test system: COLO 205 colon
UO-31 renal = test system: UO-31 renal
OVCAR-4 ovarian = test system: OVCAR-4 ovarian
SR leukemia = test system: SR leukemia
MALME-3M melanoma = test system: MALME-3M melanoma
RXF 393 renal = test system: RXF 393 renal
MDA-MB-231 breast = test system: MDA-MB-231 breast
SF-295 CNS = test system: SF-295 CNS
HOP-62 NSCLC = test system: HOP-62 NSCLC
SK-MEL-28 melanoma = test system: SK-MEL-28 melanoma
NCI-H23 lung = test system: NCI-H23 lung
MDA-MB-435 = test system: MDA-MB-435
NCI-H522 lung = test system: NCI-H522 lung
SW-620 colon = test system: SW-620 colon
HS 578T breast = test system: HS 578T breast
OVCAR-5 ovarian = test system: OVCAR-5 ovarian
UACC-257 melanoma = test system: UACC-257 melanoma
NCI-H460 lung = test system: NCI-H460 lung
HOP-92 NSCLC = test system: HOP-92 NSCLC
SK-OV-3 ovarian = test system: SK-OV-3 ovarian
SNB-75 CNS = test system: SNB-75 CNS
A498 renal = test system: A498 renal
LOX IMVI melanoma = test system: LOX IMVI melanoma
K-562 leukemia = test system: K-562 leukemia
SNB-19 CNS = test system: SNB-19 CNS
M14 melanoma = test system: M14 melanoma
IGROV1 ovarian = test system: IGROV1 ovarian
SK-MEL-2 melanoma = test system: SK-MEL-2 melanoma
ACHN renal = test system: ACHN renal
U251 CNS = test system: U251 CNS
RPMI-8226 leukemia = test system: RPMI-8226 leukemia
HT29 colon = test system: HT29 colon
SN12C renal = test system: SN12C renal
KM12 colon = test system: KM12 colon
NCI/ADR-RES ovarian = test system: NCI/ADR-RES ovarian
SF-539 CNS = test system: SF-539 CNS

Compound `CCn1c(-c2nonc2N)nc2c(C#CC(C)(C)O)nc(CN3CCCC3)cc21` has a GI50 (MOLT-4 leukemia) greater than 20.4 µM, a TGI (MOLT-4 leukemia) greater than 25 µM and a GI50 (OVCAR-8 ovarian) greater than 25 µM. It also gave a TGI (OVCAR-8 ovarian) greater than 25 µM, a GI50 (TK-10 renal) of 17.9 µM and a TGI (TK-10 renal) greater than 25 µM. It also gave a GI50 (A549 NSCLC) greater than 25 µM, a TGI (A549 NSCLC) greater than 25 µM and a GI50 (MCF7 breast) of 20 µM. The TGI (MCF7 breast) was greater than 25 µM, the GI50 (SF-268 CNS) was greater than 25 µM and the TGI (SF-268 CNS) was greater than 25 µM. It also gave a GI50 (HCT-116 colon) greater than 25 µM, a TGI (HCT-116 colon) greater than 25 µM and a GI50 (786-0 renal) of 18.7 µM. It also gave a TGI (786-0 renal) greater than 25 µM, a GI50 (PC-3 prostate) greater than 25 µM and a TGI (PC-3 prostate) greater than 25 µM. It also gave a GI50 (NCI-H226 lung) greater than 25 µM, a TGI (NCI-H226 lung) greater than 25 µM and a GI50 (UACC-62 melanoma) greater than 25 µM. For the same compound, the TGI (UACC-62 melanoma) was greater than 25 µM, the GI50 (EKVX NSCLC) was greater than 25 µM and the TGI (EKVX NSCLC) was greater than 25 µM. For the same compound, the GI50 (SK-MEL-5 melanoma) was greater than 25 µM, the TGI (SK-MEL-5 melanoma) was greater than 25 µM and the GI50 (CAKI-1 renal) was greater than 25 µM. For the same compound, the TGI (CAKI-1 renal) was greater than 25 µM, the GI50 (OVCAR-3 ovarian) was greater than 25 µM and the TGI (OVCAR-3 ovarian) was greater than 25 µM. It also gave a GI50 (HL-60(TB) leukemia) greater than 25 µM, a TGI (HL-60(TB) leukemia) greater than 25 µM and a GI50 (BT-549 breast) of 18.8 µM. It also gave a TGI (BT-549 breast) greater than 25 µM, a GI50 (T-47D breast) of 6.84 µM and a TGI (T-47D breast) greater than 25 µM. For the same compound, the GI50 (CCRF-CEM leukemia) was 20.5 µM, the TGI (CCRF-CEM leukemia) was greater than 25 µM and the GI50 (DU-145 prostate) was greater than 25 µM. For the same compound, the TGI (DU-145 prostate) was greater than 25 µM, the GI50 (HCC-2998 colon) was greater than 25 µM and the TGI (HCC-2998 colon) was greater than 25 µM. For the same compound, the GI50 (HCT-15 colon) was greater than 25 µM, the TGI (HCT-15 colon) was greater than 25 µM and the GI50 (COLO 205 colon) was greater than 25 µM. For the same compound, the TGI (COLO 205 colon) was greater than 25 µM, the GI50 (UO-31 renal) was greater than 25 µM and the TGI (UO-31 renal) was greater than 25 µM. For the same compound, the GI50 (OVCAR-4 ovarian) was greater than 25 µM, the TGI (OVCAR-4 ovarian) was greater than 25 µM and the GI50 (SR leukemia) was greater than 25 µM. The TGI (SR leukemia) was greater than 25 µM, the GI50 (MALME-3M melanoma) was greater than 25 µM and the TGI (MALME-3M melanoma) was greater than 25 µM. It also gave a GI50 (RXF 393 renal) of 6.31 µM, a TGI (RXF 393 renal) greater than 25 µM and a GI50 (MDA-MB-231 breast) greater than 25 µM. The TGI (MDA-MB-231 breast) was greater than 25 µM, the GI50 (SF-295 CNS) was 10.9 µM and the TGI (SF-295 CNS) was greater than 25 µM. It also gave a GI50 (HOP-62 NSCLC) greater than 25 µM, a TGI (HOP-62 NSCLC) greater than 25 µM and a GI50 (SK-MEL-28 melanoma) greater than 25 µM. The TGI (SK-MEL-28 melanoma) was greater than 25 µM, the GI50 (NCI-H23 lung) was greater than 25 µM and the TGI (NCI-H23 lung) was greater than 25 µM. The GI50 (MDA-MB-435) was greater than 25 µM, the TGI (MDA-MB-435) was greater than 25 µM and the GI50 (NCI-H522 lung) was 18.3 µM. For the same compound, the TGI (NCI-H522 lung) was greater than 25 µM, the GI50 (SW-620 colon) was greater than 25 µM and the TGI (SW-620 colon) was greater than 25 µM. For the same compound, the GI50 (HS 578T breast) was 7.39 µM, the TGI (HS 578T breast) was greater than 25 µM and the GI50 (OVCAR-5 ovarian) was greater than 25 µM. The TGI (OVCAR-5 ovarian) was greater than 25 µM, the GI50 (UACC-257 melanoma) was greater than 25 µM and the TGI (UACC-257 melanoma) was greater than 25 µM. The GI50 (NCI-H460 lung) was greater than 25 µM, the TGI (NCI-H460 lung) was greater than 25 µM and the GI50 (HOP-92 NSCLC) was greater than 25 µM. It also gave a TGI (HOP-92 NSCLC) greater than 25 µM, a GI50 (SK-OV-3 ovarian) greater than 25 µM and a TGI (SK-OV-3 ovarian) greater than 25 µM. It also gave a GI50 (SNB-75 CNS) of 8.29 µM, a TGI (SNB-75 CNS) greater than 25 µM and a GI50 (A498 renal) of 1.39 µM. It also gave a TGI (A498 renal) of 14.6 µM, a GI50 (LOX IMVI melanoma) greater than 25 µM and a TGI (LOX IMVI melanoma) greater than 25 µM. It also gave a GI50 (K-562 leukemia) greater than 25 µM, a TGI (K-562 leukemia) greater than 25 µM and a GI50 (SNB-19 CNS) greater than 25 µM. The TGI (SNB-19 CNS) was greater than 25 µM, the GI50 (M14 melanoma) was greater than 25 µM and the TGI (M14 melanoma) was greater than 25 µM. It also gave a GI50 (IGROV1 ovarian) of 9.23 µM, a TGI (IGROV1 ovarian) greater than 25 µM and a GI50 (SK-MEL-2 melanoma) greater than 25 µM. It also gave a TGI (SK-MEL-2 melanoma) greater than 25 µM, a GI50 (ACHN renal) greater than 25 µM and a TGI (ACHN renal) greater than 25 µM. For the same compound, the GI50 (U251 CNS) was greater than 25 µM, the TGI (U251 CNS) was greater than 25 µM and the GI50 (RPMI-8226 leukemia) was greater than 25 µM. It also gave a TGI (RPMI-8226 leukemia) greater than 25 µM, a GI50 (HT29 colon) greater than 25 µM and a TGI (HT29 colon) greater than 25 µM. For the same compound, the GI50 (SN12C renal) was greater than 25 µM, the TGI (SN12C renal) was greater than 25 µM and the GI50 (KM12 colon) was greater than 25 µM. The TGI (KM12 colon) was greater than 25 µM, the GI50 (NCI/ADR-RES ovarian) was greater than 25 µM and the TGI (NCI/ADR-RES ovarian) was greater than 25 µM. For the same compound, the GI50 (SF-539 CNS) was 16.9 µM and the TGI (SF-539 CNS) was greater than 25 µM.

`Nc1cccc(CCN2CCN(CCCc3ccccc3)CC2)c1` showed a TGI (MOLT-4 leukemia) greater than 100 µM, a TGI (OVCAR-8 ovarian) of 63.2 µM and a TGI (TK-10 renal) greater than 100 µM. The TGI (A549 NSCLC) was greater than 100 µM, the TGI (MCF7 breast) was 36.4 µM and the TGI (SF-268 CNS) was greater than 100 µM. It also gave a TGI (HCT-116 colon) of 36.7 µM, a TGI (786-0 renal) of 37.4 µM and a TGI (PC-3 prostate) greater than 100 µM. The TGI (NCI-H226 lung) was greater than 100 µM, the TGI (UACC-62 melanoma) was 52.7 µM and the TGI (EKVX NSCLC) was greater than 100 µM. The TGI (SK-MEL-5 melanoma) was 34.3 µM, the TGI (CAKI-1 renal) was greater than 100 µM and the TGI (OVCAR-3 ovarian) was 41.2 µM. The TGI (HL-60(TB) leukemia) was greater than 100 µM, the TGI (BT-549 breast) was greater than 100 µM and the TGI (T-47D breast) was 52.6 µM. For the same compound, the TGI (CCRF-CEM leukemia) was greater than 100 µM, the TGI (DU-145 prostate) was greater than 100 µM and the TGI (HCC-2998 colon) was 28.2 µM. For the same compound, the TGI (HCT-15 colon) was 38.2 µM, the TGI (COLO 205 colon) was 34.8 µM and the TGI (UO-31 renal) was greater than 100 µM. It also gave a TGI (OVCAR-4 ovarian) greater than 100 µM, a TGI (SR leukemia) of 65.9 µM and a TGI (MALME-3M melanoma) of 38 µM. For the same compound, the TGI (RXF 393 renal) was 52.2 µM, the TGI (MDA-MB-231 breast) was greater than 100 µM and the TGI (SF-295 CNS) was 70 µM. It also gave a TGI (HOP-62 NSCLC) greater than 100 µM, a TGI (SK-MEL-28 melanoma) of 88.4 µM and a TGI (NCI-H23 lung) greater than 100 µM. It also gave a TGI (MDA-MB-435) of 36.9 µM, a TGI (NCI-H522 lung) of 30.1 µM and a TGI (SW-620 colon) greater than 100 µM. It also gave a TGI (HS 578T breast) greater than 100 µM, a TGI (OVCAR-5 ovarian) greater than 100 µM and a TGI (UACC-257 melanoma) of 65.3 µM. It also gave a TGI (NCI-H460 lung) of 71.4 µM, a TGI (HOP-92 NSCLC) of 53.8 µM and a TGI (SK-OV-3 ovarian) greater than 100 µM. The TGI (SNB-75 CNS) was greater than 100 µM, the TGI (A498 renal) was greater than 100 µM and the TGI (LOX IMVI melanoma) was 33.1 µM. The TGI (K-562 leukemia) was greater than 100 µM, the TGI (SNB-19 CNS) was greater than 100 µM and the TGI (M14 melanoma) was 32.3 µM. For the same compound, the TGI (IGROV1 ovarian) was greater than 100 µM, the TGI (SK-MEL-2 melanoma) was greater than 100 µM and the TGI (ACHN renal) was greater than 100 µM. It also gave a TGI (U251 CNS) greater than 100 µM, a TGI (RPMI-8226 leukemia) greater than 100 µM and a TGI (HT29 colon) of 46.5 µM. The TGI (SN12C renal) was greater than 100 µM, the TGI (KM12 colon) was 81.5 µM and the TGI (NCI/ADR-RES ovarian) was greater than 100 µM. It also gave a TGI (SF-539 CNS) of 40.6 µM.
